Seven molecules from patent US12441718B2, “Selective angiotensin II compounds” (VICORE PHARMA AB, priority 2021, dated 2025) can be followed below.

The nature of series [1]: Metabolic stability in pooled human liver microsomes. It counts as in vitro ADME. Particulars: human, pooled human liver microsomes, pooled human liver microsomes 0.5 mg/mL, 1 μM test compound, 37° C., * rows = mean of two runs. As to the method: Pooled human liver microsomes in PBS at a concentration of 0.5 mg/mL was incubated with or without 1 mM NADPH for 70 min at 37° C. Test compound was added after 10 minutes to a final concentration of 1 μM. Samples were withdrawn at 0, 5, 15 and 60 minutes and added to test tubes containing acetonitrile, to stop the reaction, and with terfenadine, used as internal standard. After centrifugation at 10 000×g for 5 minutes the supernatant was diluted 1:1 with 1% formic acid. Samples were separated on a reverse phase column and detected by triple quadrupole MSMS (Agilant model 6540). The concentration of the parent compound at the different time points was measured with an external standard curve using terfenadine as internal standard and the initial metabolic rate in the presence or absence of NADPH calculated.
(Microsomes from liver hold many membrane-bound enzymes, among them those of drug oxidation.)

In series [2] the target is T1, human recombinant AT2 receptor (Homo sapiens, UniProt P50052).
T1 construct: purchased Eurofins ITEM26 (protocol number)
T1 sequence (P50052 1-363): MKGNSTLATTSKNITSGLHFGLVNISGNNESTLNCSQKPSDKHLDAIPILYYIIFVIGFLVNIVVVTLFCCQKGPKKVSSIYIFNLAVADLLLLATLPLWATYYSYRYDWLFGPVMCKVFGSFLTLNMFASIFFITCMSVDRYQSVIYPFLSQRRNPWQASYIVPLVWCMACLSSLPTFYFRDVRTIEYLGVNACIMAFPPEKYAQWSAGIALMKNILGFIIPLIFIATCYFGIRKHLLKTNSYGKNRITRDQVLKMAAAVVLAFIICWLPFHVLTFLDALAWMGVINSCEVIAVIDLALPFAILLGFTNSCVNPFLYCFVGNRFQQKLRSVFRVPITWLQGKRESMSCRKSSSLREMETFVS
The series is described as follows: Binding to AT2 receptor, radiometric scintillation assay (Eurofins ITEM26). The note with it: ligand 125I CGP 42112A, * rows = mean of runs; for Ki: seven-point dose-response curve; for IC50: test compounds at 1, 10, 100 and 1000 nM, read-out: AT2 GraFit IC50.

In series [3] the target is T2, CYP1A2 (Homo sapiens, UniProt P05177).
T2 construct: isoform-specific substrates incubated with human liver microsomes; tissue Eurofins ITEMG232 (protocol number); host or cells: human liver microsomes
In words: in vitro. Format: in vitro ADME. The note with it: human, microsomes, human liver microsomes, substrate phenacetin, read-out: CYP1A2 Inh %.
Method: The following substrates were used; CYP1A phenacetin, CYP2B36 bupropion, CYP2C8 paclitaxel and amodiaquine, CYP2C9 diclofenac, CYP2C19 omeprazole, CYP2D6 dextromethorphan, CYP3A midazolam and testosterone.
At the end of the incubation, the formation of metabolite was monitored by HPLC-MS/MS as the peak area response.

Series [4] addresses T3, CYP2B6 (Homo sapiens, UniProt P20813).
T3 construct: isoform-specific substrates incubated with human liver microsomes; tissue Eurofins ITEMG232 (protocol number); host or cells: human liver microsomes
T3 sequence (P20813 1-491): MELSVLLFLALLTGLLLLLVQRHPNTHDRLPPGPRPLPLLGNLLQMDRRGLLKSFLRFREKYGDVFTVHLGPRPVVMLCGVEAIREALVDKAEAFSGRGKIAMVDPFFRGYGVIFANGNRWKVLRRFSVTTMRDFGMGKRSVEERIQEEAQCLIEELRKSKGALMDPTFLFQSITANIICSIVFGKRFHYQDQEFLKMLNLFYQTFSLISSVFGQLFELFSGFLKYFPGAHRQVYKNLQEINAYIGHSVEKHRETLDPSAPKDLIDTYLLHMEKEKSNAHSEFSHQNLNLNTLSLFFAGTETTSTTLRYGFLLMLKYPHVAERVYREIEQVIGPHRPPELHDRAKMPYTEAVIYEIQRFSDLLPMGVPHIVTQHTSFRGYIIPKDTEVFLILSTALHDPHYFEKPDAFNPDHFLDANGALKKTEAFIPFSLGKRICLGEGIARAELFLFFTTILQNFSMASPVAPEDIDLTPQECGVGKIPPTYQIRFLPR
In words: CYP inhibition in human liver microsomes (Eurofins ITEMG232). The note with it: probe bupropion, substrate bupropion, read-out: CYP2B6 Inh %. Format: in vitro ADME.

Series [5] addresses T4, CYP2C19 (Homo sapiens, UniProt P33261).
T4 construct: isoform-specific substrates incubated with human liver microsomes; tissue Eurofins ITEMG232 (protocol number); host or cells: human liver microsomes
The description is as above. Particulars: human, probe omeprazole, substrate omeprazole, read-out: CYP2C19 Inh %. Format: in vitro ADME.

Series [6] deals with T5, CYP2C8 (Homo sapiens, UniProt P10632).
T5 construct: isoform-specific substrates incubated with human liver microsomes; tissue Eurofins ITEMG232 (protocol number); host or cells: human liver microsomes
T5 sequence (P10632 1-490): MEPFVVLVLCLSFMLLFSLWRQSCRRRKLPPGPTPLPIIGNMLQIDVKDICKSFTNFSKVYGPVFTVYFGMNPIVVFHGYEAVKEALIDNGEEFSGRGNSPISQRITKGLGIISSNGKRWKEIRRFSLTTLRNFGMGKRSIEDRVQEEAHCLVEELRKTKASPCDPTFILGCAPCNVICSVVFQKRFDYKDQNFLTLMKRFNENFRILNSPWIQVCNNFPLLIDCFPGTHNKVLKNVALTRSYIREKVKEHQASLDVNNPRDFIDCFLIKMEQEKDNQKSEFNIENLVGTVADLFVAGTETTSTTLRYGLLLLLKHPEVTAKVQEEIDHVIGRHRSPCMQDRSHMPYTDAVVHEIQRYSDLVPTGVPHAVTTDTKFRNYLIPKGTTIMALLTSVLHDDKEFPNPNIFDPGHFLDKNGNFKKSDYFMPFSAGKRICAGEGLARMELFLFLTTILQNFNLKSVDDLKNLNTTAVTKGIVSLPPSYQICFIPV
The description is as above. Format: in vitro ADME. The note with it: human, probe paclitaxel and amodiaquine, substrate paclitaxel and amodiaquine, read-out: CYP2C8 Inh %.

Series [7] concerns the target T6, CYP2D6 (Homo sapiens, UniProt P10635).
T6 construct: isoform-specific substrates incubated with human liver microsomes; tissue Eurofins ITEMG232 (protocol number); host or cells: human liver microsomes
The series is described as above. It counts as in vitro ADME. The note with it: probe dextromethorphan, substrate dextromethorphan, read-out: CYP2D6 Inh %.

The test system of series [8] is CYP3A4&5. The series is described as follows: in vitro. The note with it: human, human liver microsomes, probe testosterone.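 Note: Read-out is the metabolite generated from the probe substrate, quantified as HPLC-MS/MS peak area once incubation ends.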
Series [9] addresses CYP2C9 (Homo sapiens, UniProt P11712). In words: CYP inhibition in human liver microsomes (Eurofins ITEMG232). More on the design: isoform-specific substrates incubated with human liver microsomes; tissue Eurofins ITEMG232 (protocol number); host or cells: human liver microsomes. Format: in vitro ADME. Particulars: human, probe diclofenac, substrate diclofenac, read-out: CYP2C9 Inh %.

Series [10] addresses CYP3A4 (Homo sapiens, UniProt P08684). The series is described as follows: CYP inhibition in human liver microsomes (Eurofins ITEMG232), midazolam substrate. The note with it: human, probe midazolam, read-out: CYP3A4 midazolam Inh %. Also on record: isoform-specific substrates incubated with human liver microsomes; tissue Eurofins ITEMG232 (protocol number); host or cells: human liver microsomes. Format: in vitro ADME.

Setting [11] is: with 1 mM NADPH, read-out: T1/2, + NaDPH.
The mark [12] stands for this setting: without NADPH, read-out: T1/2, no NaDPH.

Each structure is given as a SMILES string. Read-outs that look alike come from different tables or passages of the source.

Sequence of CYP2C9 (P11712 whole entry, canonical isoform): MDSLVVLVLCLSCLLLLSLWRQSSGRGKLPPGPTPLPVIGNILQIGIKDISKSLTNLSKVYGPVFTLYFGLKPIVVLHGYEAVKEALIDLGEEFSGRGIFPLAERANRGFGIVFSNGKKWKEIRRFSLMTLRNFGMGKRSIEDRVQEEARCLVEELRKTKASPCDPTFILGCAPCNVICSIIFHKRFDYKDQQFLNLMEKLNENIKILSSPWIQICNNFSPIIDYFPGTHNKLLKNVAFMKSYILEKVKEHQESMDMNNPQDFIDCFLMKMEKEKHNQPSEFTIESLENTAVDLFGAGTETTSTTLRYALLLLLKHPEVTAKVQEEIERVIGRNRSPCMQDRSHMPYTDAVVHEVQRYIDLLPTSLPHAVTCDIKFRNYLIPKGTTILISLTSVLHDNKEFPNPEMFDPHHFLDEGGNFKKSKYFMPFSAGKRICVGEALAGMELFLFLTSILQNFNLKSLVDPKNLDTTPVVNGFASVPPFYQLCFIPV
T2 sequence (P05177 whole entry, canonical isoform): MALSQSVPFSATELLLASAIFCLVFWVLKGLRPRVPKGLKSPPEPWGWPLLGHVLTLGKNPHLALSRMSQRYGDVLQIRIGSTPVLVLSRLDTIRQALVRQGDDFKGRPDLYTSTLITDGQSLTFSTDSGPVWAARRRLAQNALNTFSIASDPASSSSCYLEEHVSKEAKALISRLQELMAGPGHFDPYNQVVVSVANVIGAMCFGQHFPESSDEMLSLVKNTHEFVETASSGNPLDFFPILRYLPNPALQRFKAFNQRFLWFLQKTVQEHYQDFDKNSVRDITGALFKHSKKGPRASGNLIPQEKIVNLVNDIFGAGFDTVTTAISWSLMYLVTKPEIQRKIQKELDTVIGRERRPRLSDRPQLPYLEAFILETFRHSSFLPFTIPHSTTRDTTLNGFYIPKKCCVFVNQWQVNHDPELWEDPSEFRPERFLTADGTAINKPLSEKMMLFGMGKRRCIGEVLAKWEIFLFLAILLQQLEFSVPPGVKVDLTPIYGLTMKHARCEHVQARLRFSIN
Sequence of CYP3A4 (P08684 whole entry, canonical isoform): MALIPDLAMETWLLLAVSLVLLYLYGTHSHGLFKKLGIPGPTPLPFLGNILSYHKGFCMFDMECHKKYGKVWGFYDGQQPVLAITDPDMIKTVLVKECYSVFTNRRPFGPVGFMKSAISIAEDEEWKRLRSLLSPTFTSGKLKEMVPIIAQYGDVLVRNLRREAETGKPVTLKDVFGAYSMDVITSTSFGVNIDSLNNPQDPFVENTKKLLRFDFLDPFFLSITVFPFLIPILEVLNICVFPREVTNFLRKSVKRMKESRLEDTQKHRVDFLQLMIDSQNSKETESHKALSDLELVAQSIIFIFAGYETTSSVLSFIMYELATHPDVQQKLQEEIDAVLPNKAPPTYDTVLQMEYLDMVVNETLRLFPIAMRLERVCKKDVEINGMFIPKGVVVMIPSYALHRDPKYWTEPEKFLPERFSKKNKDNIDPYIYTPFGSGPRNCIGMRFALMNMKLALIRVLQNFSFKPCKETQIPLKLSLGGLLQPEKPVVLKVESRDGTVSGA
T6 sequence (P10635 whole entry, canonical isoform): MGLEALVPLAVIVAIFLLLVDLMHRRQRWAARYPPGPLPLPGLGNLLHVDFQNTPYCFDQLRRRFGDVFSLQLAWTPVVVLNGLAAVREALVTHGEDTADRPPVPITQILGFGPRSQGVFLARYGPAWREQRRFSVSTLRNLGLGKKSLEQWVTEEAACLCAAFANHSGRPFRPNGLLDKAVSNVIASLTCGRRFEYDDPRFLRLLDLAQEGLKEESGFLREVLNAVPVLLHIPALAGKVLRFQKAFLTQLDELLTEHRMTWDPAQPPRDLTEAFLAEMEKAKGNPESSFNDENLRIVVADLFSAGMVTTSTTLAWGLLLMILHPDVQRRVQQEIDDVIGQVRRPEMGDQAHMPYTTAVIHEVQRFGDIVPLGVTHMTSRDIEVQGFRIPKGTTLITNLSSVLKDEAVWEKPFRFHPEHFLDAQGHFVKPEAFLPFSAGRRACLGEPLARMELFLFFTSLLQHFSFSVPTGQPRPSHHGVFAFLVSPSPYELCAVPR
T4 sequence (P33261 whole entry, canonical isoform): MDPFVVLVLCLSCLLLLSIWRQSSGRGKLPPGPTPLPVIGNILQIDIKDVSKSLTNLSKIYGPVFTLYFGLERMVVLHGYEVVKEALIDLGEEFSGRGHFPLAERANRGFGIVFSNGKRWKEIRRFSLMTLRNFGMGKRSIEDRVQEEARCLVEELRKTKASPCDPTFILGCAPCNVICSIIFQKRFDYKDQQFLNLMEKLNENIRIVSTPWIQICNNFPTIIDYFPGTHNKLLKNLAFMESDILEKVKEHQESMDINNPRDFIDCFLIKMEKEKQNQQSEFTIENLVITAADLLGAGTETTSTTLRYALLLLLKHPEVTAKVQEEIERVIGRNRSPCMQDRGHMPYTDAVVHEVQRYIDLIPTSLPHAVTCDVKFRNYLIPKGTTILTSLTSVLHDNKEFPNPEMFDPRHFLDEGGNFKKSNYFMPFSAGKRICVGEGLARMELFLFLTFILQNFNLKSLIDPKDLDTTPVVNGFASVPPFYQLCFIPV

Usually Ki stands for the equilibrium dissociation constant of an inhibitor or competing ligand from its target. For orientation: IC50 means the concentration needed to halve the response being measured. On to `Cc1nc(NS(=O)(=O)c2ccc(CC(C)C)cc2-c2ccc(Cn3ccnc3C(C)(C)C)cc2)oc1C` [Example 13, 4′-((2-(tert-Butyl)-1H-imidazol-1-yl)methyl)-N-(4,5-dimethyloxazol-2-yl)-5-isobutyl-[1,1′-biphenyl]-2-sulfonamide], for which the half-life at 1 μM in [1] (setting [11]) was 0.567 h; in [1] (setting [12]), more than 1 h. Further, the inhibition constant (Ki) in series [2] was determined as 22.9 nM. The IC50 in [2] turned out to be 45.8 nM. Moreover, the inhibition at 10 µM in [3] is 19.8%; in series [4], 30.4%; in series [5], 52.1%; in series [6], 71.3%; in series [7], 17.6%; in series [8] it was -2.8%. Further, the figures for the inhibition at 10 µM in series [9] and in series [10] were 50.9% and -48.7%, respectively.

With `CC(C)Cc1ccc(S(=O)(=O)Nc2ncc(Cl)cn2)c(-c2ccc(Cn3ccnc3C(C)(C)C)c(F)c2)c1` [Example 10, 4′-((2-(tert-Butyl)-1H-imidazol-1-yl)methyl)-N-(5-chloropyrimidin-2-yl)-3′-fluoro-5-isobutyl-[1,1′-biphenyl]-2-sulfonamide], the half-life at 1 μM in [1] (setting [11]) and in series [1] (setting [12]) was more than 1 h each time. Further, in series [2], the inhibition constant (Ki) was 1.5 nM. Moreover, in series [2], the IC50 is 3 nM. Moreover, the inhibition at 10 µM in [3] was 37.7%; in series [4] it was 58.3%; in [5], 55.3%; in series [6], 93.2%; in series [7] it was 31.9%; in [8], -17.5%. For the same molecule, the inhibition at 10 µM was determined as 87% in series [9] and 32.1% in series [10].

In the case of `CC(C)Cc1ccc(S(=O)(=O)Nc2nccs2)c(-c2ccc(Cn3ccnc3C(C)(C)C)cc2)c1` [Example 5, 4′-((2-(tert-Butyl)-1H-imidazol-1-yl)methyl)-5-isobutyl-N-(thiazol-2-yl)-[1,1′-biphenyl]-2-sulfonamide], the half-life at 1 μM in series [1] (setting [11]) was 0.717 h; in series [1] (setting [12]), more than 1 h. The inhibition at 10 µM in series [3] was 19.2%; in [4], 56.5%; in series [5] it was 70.1%; in series [6], 92.1%; in series [7] it was 44.5%; in series [8] it was 56%. Further, the inhibition at 10 µM in series [9] was 72.9%; in [10] it was -11.4%.

Consider `Cc1nccn1Cc1ccc(-c2cc(CC(C)C)sc2S(=O)(=O)Nc2ncccn2)cc1F` [Example 44, 3-(3-Fluoro-4-((2-methyl-1H-imidazol-1-yl)methyl)phenyl)-5-isobutyl-N-(pyrimidin-2-yl)thiophene-2-sulfonamide], for which the half-life at 1 μM in [1] (setting [11]) and in series [1] (setting [12]) was more than 1 h in each case. Moreover, the inhibition at 10 µM worked out at 33% in series [3]; 14% in series [4]; 64% in series [5]; 43% in [6]; 9% in series [7]; 67% in series [8]. The figures for the inhibition at 10 µM in series [9] and in series [10] were 30% and 35%, respectively.

Regarding `COc1ncnc(OC)c1NS(=O)(=O)c1ccc(CC(C)C)cc1-c1ccc(Cn2ccnc2C(C)(C)C)cc1` [Example 19, 4′-((2-(tert-Butyl)-1H-imidazol-1-yl)methyl)-N-(4,6-dimethoxypyrimidin-5-yl)-5-isobutyl-[1,1′-biphenyl]-2-sulfonamide], the half-life at 1 μM is 0.15 h in series [1] (setting [11]) and more than 1 h in [1] (setting [12]). In addition, the inhibition at 10 µM in [3] turned out to be 21.7%; in [4], 27.5%; in series [5], 74.8%; in series [6], 54.3%; in series [7] it was 45.2%; in series [8], 63%. In addition, the inhibition at 10 µM came to 87.6% in series [9] and 73% in series [10].

Regarding `COc1ncncc1NS(=O)(=O)c1ccc(CC(C)C)cc1-c1ccc(Cn2ccnc2C(C)(C)C)cc1` [Example 18, 4′-((2-(tert-Butyl)-1H-imidazol-1-yl)methyl)-5-isobutyl-N-(4-methoxypyrimidin-5-yl)-[1,1′-biphenyl]-2-sulfonamide], the values for the half-life at 1 μM in series [1] (setting [11]) and in series [1] (setting [12]) were 0.117 h and more than 1 h, respectively. Further, the inhibition at 10 µM in series [3] stood at 9.7%; in series [4] it was 40.4%; in [5], 87.8%; in [6], 59.7%; in [7] it was 16.4%; in series [8] it was 97.9%. Further, the results for the inhibition at 10 µM in series [9] and in [10] were 90.8% and 98.4%, respectively.

`CC(C)Cc1ccc(S(=O)(=O)Nc2ncc(Cl)cn2)c(-c2ccc(Cn3ccnc3C(C)(C)C)cc2)c1` [Example 2, 4′-((2-(tert-Butyl)-1H-imidazol-1-yl)methyl)-N-(5-chloropyrimidin-2-yl)-5-isobutyl-[1,1′-biphenyl]-2-sulfonamide]: the half-life at 1 μM in series [1] (setting [11]) and in series [1] (setting [12]) was more than 1 h each time. For the same molecule, the inhibition at 10 µM came out at 84% in series [3]; 14% in [4]; 37% in series [5]; 88.7% in [6]; 5.7% in series [7]; 3.3% in [8]. Further, the inhibition at 10 µM in [9] came out at 46%; in [10], 36%.
